Measurements published in patent US20250064874A1, “Mushroom Spore, Cannabinoid, and Specified Compositions” (priority 2023, published 2025).

Legend:
[1] = test system: neuronal cultures exposed to glutamate; settings: in vitro, isolated or synthetic CBD; cited from earlier work
[2] = isolated or synthetic CBD; cited from earlier work
[3] = test system: shin splits, sciatica tight muscles, aching back pains, and circulation issues; assay: Example 12 case report: soaking body in magnesium sulfate with or without Reishi spore powder; assay type: in vivo, human; settings: body soaked 30 minutes in 20 gallons of hot water, 1 cup Magnesium sulfate
Experimental: The person tried soaking body in 1 cup of Magnesium sulfate with 20 gallons of hot water for 30 minutes. […] After 72 hours, the person soaked their body in 20 gallons of hot water comprising 1 cup of Magnesium sulfate in combination with 1000 mg of Reishi Mushroom Spore Powder, for 30 minutes.

Row | SMILES | prevention of toxicity of glutamate [1] | difference between treated animals and placebo [2] | improvement noticed (pain relief, sleep, mood, circulation, dexterity) [3]
1 | C=C(C)[C@@H]1CCC(C)=C[C@H]1c1c(O)cc(CCCCC)cc1O [CBD, cannabidiol] | could be prevented to some extent | failed to find a difference | –
2 | O=S(=O)([O-])[O-].[Mg+2] [Magnesium sulfate] | – | – | slight improvement
